Results: ChEMBL document CHEMBL1135520, “Rational design and synthesis of a novel thyroid hormone antagonist that blocks coactivator recruitment” (J Med Chem, 2002)

Tests used:
[1] = biological target: T1, Thyroid hormone receptor alpha (Homo sapiens, UniProt P10827); assay: Half-maximum activation of human Thyroid hormone receptor alpha-1 (hTRalpha1)
T1 sequence (P10827 whole entry): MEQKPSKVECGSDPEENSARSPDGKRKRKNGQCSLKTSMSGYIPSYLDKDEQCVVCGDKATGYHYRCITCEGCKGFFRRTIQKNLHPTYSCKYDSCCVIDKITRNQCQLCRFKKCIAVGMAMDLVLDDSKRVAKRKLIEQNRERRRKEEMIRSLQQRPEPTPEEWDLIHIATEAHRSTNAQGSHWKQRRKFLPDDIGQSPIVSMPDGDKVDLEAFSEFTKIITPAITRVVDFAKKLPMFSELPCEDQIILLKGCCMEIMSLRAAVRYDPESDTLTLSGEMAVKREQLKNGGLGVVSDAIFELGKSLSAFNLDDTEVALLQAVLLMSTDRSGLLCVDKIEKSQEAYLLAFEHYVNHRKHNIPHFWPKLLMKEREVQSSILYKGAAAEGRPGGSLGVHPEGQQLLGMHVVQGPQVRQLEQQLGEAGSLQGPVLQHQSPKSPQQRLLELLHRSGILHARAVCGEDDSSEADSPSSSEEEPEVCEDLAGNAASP

[2] = biological target: T2, Thyroid hormone receptor beta (Homo sapiens, UniProt P10828)
T2 sequence (P10828 whole entry): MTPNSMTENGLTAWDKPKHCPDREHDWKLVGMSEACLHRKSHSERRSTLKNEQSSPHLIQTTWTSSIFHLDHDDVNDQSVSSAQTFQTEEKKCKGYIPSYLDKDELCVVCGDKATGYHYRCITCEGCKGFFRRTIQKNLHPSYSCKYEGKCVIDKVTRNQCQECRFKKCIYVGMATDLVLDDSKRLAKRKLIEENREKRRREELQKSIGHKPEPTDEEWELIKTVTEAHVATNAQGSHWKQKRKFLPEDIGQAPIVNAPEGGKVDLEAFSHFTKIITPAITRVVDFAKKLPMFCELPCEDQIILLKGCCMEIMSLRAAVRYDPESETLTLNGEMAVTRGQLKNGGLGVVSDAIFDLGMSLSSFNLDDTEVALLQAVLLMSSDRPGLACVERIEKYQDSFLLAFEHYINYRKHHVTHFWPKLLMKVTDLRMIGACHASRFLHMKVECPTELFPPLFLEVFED

[3] = biological target: T2, Thyroid hormone receptor beta; assay: Half-maximum activation of human Thyroid hormone receptor beta 1 (hTRbeta1)
[4] = biological target: T1, Thyroid hormone receptor alpha

Cc1cc(OCC(=O)O)cc(C)c1Cc1cc(C#Cc2ccc([N+](=O)[O-])cc2)c(O)c(C(C)C)c1
IC50 [1]: 950 nM
Kd [2]: 20 nM
IC50 [3]: 370 nM
Kd [4]: 93 nM

CCCCCc1ccc(C#Cc2cc(Cc3c(C)cc(OCC(=O)O)cc3C)cc(C(C)C)c2O)cc1
Kd [2]: 0.52 nM
EC50 [3]: 380 nM
Kd [4]: 5.2 nM

Cc1cc(OCC(=O)O)cc(C)c1Cc1cc(C#Cc2ccc(N)cc2)c(O)c(C(C)C)c1
Kd [2]: 90 nM
Kd [4]: 330 nM

Cc1cc(OCC(=O)O)cc(C)c1Cc1cc(C#Cc2ccccc2)c(O)c(C(C)C)c1
Kd [2]: 37 nM
EC50 [3]: 500 nM
Kd [4]: 490 nM

Cc1cc(OCC(=O)O)cc(C)c1Cc1cc(-c2ccc([N+](=O)[O-])cc2)c(O)c(C(C)C)c1
IC50 [1]: 5000 nM
Kd [2]: 35 nM
IC50 [3]: 680 nM
Kd [4]: 200 nM
